Values of other authors in patent publication US12691078B2, “Stable compositions of functional ingredients and methods of making the same” (Nulixir Inc., priority 2021, dated 2026).

Legend:
[1] = reference solvents n-octanol and water; pH=7 unless stated otherwise; mostly given as approximate (~=)
[2] = ethanol extraction of Golden Seal

Row | Compound | logP [1] | solubility in ethanol as a function of water content [2]
1 | COc1cc2c(c(OC)c1OC)-c1c(cc3c(c1OC)OCO3)CC(C)C(C)C2 (single isomer, unassigned; (-)) [(−)-schisandrin B] | ~4 | 
2 | COc1cc(/C=C/c2ccccc2)oc(=O)c1 [5,6-dehydrokawain] | ~2.9 | 
3 | COC1=CC(=O)OC(/C=C/c2ccc(OC)cc2)C1 (stereo not drawn) [5,6-dihydroyangonin] | ~2.5 | 
4 | CC1=C(CO)C(=O)O[C@@H]([C@@H](C)[C@H]2CC[C@H]3[C@@H]4C[C@H](Cl)[C@]5(O)[C@@H](O)C=CC(=O)[C@]5(C)[C@H]4CC[C@]23C)C1 [6a-chloro-5b-hydroxywithaferin A] | ~3.2 | 
5 | COC1=CC(=O)O[C@@H](CCc2ccc3c(c2)OCO3)C1 [7,8-dihydromethysticin] | ~2.2 | 
6 | COc1ccc(CCc2cc(OC)cc(=O)o2)cc1 [7,8-dihydroyangonin] | ~2.9 | 
7 | COc1cc(/C=C\c2ccc(OC)c(O)c2)oc(=O)c1 [11-hydroxyyangonin] | ~2.2 | 
8 | COc1cc2c(c(OC)c1OC)-c1c(cc(OC)c(OC)c1OC)C[C@](C)(O)[C@@H](C)C2 [(+)-schisandrin] | ~5 | 
9 | COc1cc2c(c(OC)c1OC)-c1c(cc(OC)c(OC)c1OC)C[C@H](C)[C@H](C)C2 [(−)-schisandrin A] | ~3.6 | 
10 | COc1c2c(cc3c1-c1c(cc4c(c1OC)OCO4)C[C@H](C)[C@H](C)C3)OCO2 [(−)-schisandrin C] | ~3.5 | 
11 | CC(C)=C[C@@H]1CO[C@]23C[C@]4(CO2)[C@H](CC[C@@H]2[C@@]5(C)CC[C@H](O[C@@H]6OC[C@H](O)[C@H](O[C@@H]7O[C@H](CO)[C@@H](O)[C@H](O)[C@H]7O)[C@H]6O[C@@H]6O[C@@H](CO)[C@H](O)[C@H]6O)C(C)(C)[C@@H]5CC[C@]24C)[C@H]3[C@@]1(C)O [bacopasaponin C] | ~2 | 
12 | CC(C)=C[C@H]1C[C@](C)(O)[C@@H]2[C@H]3CC[C@@H]4[C@@]5(C)CC[C@H](O[C@@H]6OC[C@H](O)[C@H](O[C@@H]7O[C@H](CO)[C@@H](O)[C@H](O)[C@H]7O)[C@H]6O[C@@H]6O[C@@H](CO)[C@H](O)[C@H]6O)C(C)(C)[C@@H]5CC[C@@]4(C)[C@@]34CO[C@@]2(C4)O1 [bacopaside X] | ~2.2 | 
13 | CC(C)=C[C@H]1C[C@](C)(O)[C@H]2[C@H]3CC[C@@H]4[C@@]5(C)CC[C@H](O[C@@H]6O[C@H](CO)[C@@H](O)[C@H](O[C@@H]7O[C@H](CO)[C@@H](O)[C@H](O)[C@H]7O)[C@H]6O[C@@H]6O[C@@H](CO)[C@H](O)[C@H]6O)C(C)(C)[C@@H]5CC[C@@]4(C)[C@@]34CO[C@@]2(C4)O1 [bacoside A3] | ~2.1 | 
14 | COc1ccc2cc3[n+](cc2c1OC)CCc1cc2c(cc1-3)OCO2 [berberine] |  | decreases rapidly with water content
15 | CC(C)=CCC[C@](C)(O[C@@H]1O[C@H](CO[C@@H]2O[C@H](CO)[C@@H](O)[C@H](O)[C@H]2O)[C@@H](O)[C@H](O)[C@H]1O)[C@H]1CC[C@]2(C)[C@@H]1[C@H](O)C[C@@H]1[C@@]3(C)CC[C@H](O[C@@H]4O[C@H](CO)[C@@H](O)[C@H](O)[C@H]4O[C@@H]4O[C@H](CO)[C@@H](O)[C@H](O)[C@H]4O)C(C)(C)[C@@H]3CC[C@]12C [ginsenoside rb1] | ~−1 | 
16 | CC(C)=CCC[C@](C)(O[C@@H]1O[C@H](CO)[C@@H](O)[C@H](O)[C@H]1O)[C@H]1CC[C@]2(C)[C@@H]1[C@H](O)C[C@@H]1[C@@]3(C)CC[C@H](O)C(C)(C)[C@@H]3[C@@H](O[C@@H]3O[C@H](CO)[C@@H](O)[C@H](O)[C@H]3O)C[C@]12C [ginsenoside rg1] | ~0.8 | 
17 | COc1ccc(C23C=CC(O)CC2N(C)CC3)cc1OC (stereo not drawn) [mesembrenol] | ~2.4 | 
18 | COc1ccc([C@@]23C=CC(=O)C[C@@H]2N(C)CC3)cc1OC [mesembrenone] | ~1.3 | 
19 | COc1ccc([C@@]23CCC(=O)C[C@@H]2N(C)CC3)cc1OC [mesembrine] | ~1.5 | 
20 | COc1nc2c(c(=O)n1C)n(C)c(=O)n2C [methylliberine] | ~−0.083 | 
21 | CC(=O)OC1C=CC(=O)N(C(=O)CCc2ccccc2)C1 (stereo not drawn) [pipermethystine] | ~1.8 | 
22 | COc1cc([C@H]2Oc3cc(O)c4c(=O)c(O)c(-c5ccc(O)cc5)oc4c3O[C@@H]2CO)ccc1O [rhodiolin] | ~2 | 
23 | COc1cc2c(c(OC)c1OC)-c1c(cc(OC)c(OC)c1OC)C[C@](C)(O)[C@@H](C)C2 [schisandrol A] | ~3.4 | 
24 | N#C[C@@]1(O[C@@H]2O[C@H](CO)[C@@H](O)[C@H](O)[C@H]2O)C=C[C@@H](O)C1 [tetraphyllin B] | ~−2.5 | 
25 | (R)-kawain | ~2.7 | 
26 | bacopaside B | ~2.8 | 
27 | hericerin | ~6.4 | 
28 | herinacine A | ~2.5 | 
29 | schisandroside C | ~1.6 | 
30 | tortuosomine | ~3 | 
